This is an account of results in patent publication US20230355810A1, “Semifluorocarbon Compound Containing Contrast Agent” (B. Braun Melsungen AG, priority 2013, published 2023).

SMILES strings stand for the structures.

Series [1] can be described thus: Miscibility / solubility of the fluorinated compound in the oil (MCT, PFOB). It is filed as physicochemical. The procedure: The emulsion of the invention comprises the semifluorinated compound and preferably the mid-chain triglyceride (MCT). According to one aspect of the invention the oil components of the emulsion form a homogeneous solution at 20° C. […] The oil phase may comprise further oil components such as long chain fatty acid triglycerides based on vegetable oil or marine oils such as fish oil. The amount of the further oil components is preferable adjusted that a completely miscible oil phase is maintained. Generally, the amount of oil components which are different from the semifluorinated compound and triglyceride b) which is preferably the MCT, are less than 50 weight percent (wt.-%), preferably less than 40 wt.-%, more preferably less than 30 wt.-%, further preferably less than 20 wt.-%, especially less than 10 wt.-%, in particular less than 5 wt.-% or essentially free, wherein the amount is based on the total weight of the oil components.
Perfluoroctylbromide (PFOB) is a known contrast agent for the magnetic resonance spectroscopy.

Series [2] is described as follows: Density measurement of mixtures of MCT and F6H8. In kind it is physicochemical. As to conditions: based on the total weight of the oil phase, FIG. 1C. The source says: By adapting the density of the oil phase to the density of the aqueous phase coalescence phenomena of the droplets as well as sedimentation phenomena, which destabilize the emulsion, can be decreased.
At about 38.5 wt.-% of F6H8 and about 61.5 wt.-% of MCT, (weight based on the total weight of the oil phase) the density of the oil mixture corresponds to the density of the aqueous phase.

With `CCCCCCCCC(F)(F)C(F)(F)C(F)(F)C(F)(F)C(F)(F)C(F)(F)F` [Example F6H8, perfluorohexyloctane], the “miscibility with MCT” value in series [1] (20° C.) is “miscible at 20 °C”. The “share of F6H8 in the oil phase (rest MCT, about 61.5 wt.-%) at which the density of the oil mixture corresponds to the density of the aqueous phase” value in series [2] is reported as “about 38.5 wt.-%”.

As for `FC(F)(F)C(F)(F)C(F)(F)C(F)(F)C(F)(F)C(F)(F)C(F)(F)C(F)(F)Br` [PFOB, Perfluoroctylbromide], the “solubility in MCT” value in series [1] is on record as “cannot be dissolved in MCT”.

As for `FC(F)(F)C(F)(F)C(F)(F)C(F)(F)C(F)(F)C(F)(F)C(F)(F)C(F)(F)C(F)(F)C(F)(F)Br` [PFDB, perfluorodecylbromide], the “solubility in PFOB” value in series [1] is given as “can be dissolved in PFOB”.
